Our source for the EC50 values is ChEMBL document CHEMBL3870361, “Discovery of Novel Seven-Membered Prostacyclin Analogues as Potent and Selective Prostaglandin FP and EP3 Dual Agonists” (ACS Med Chem Lett, 2017).

As a reminder, the EC50 is the concentration at which the effect is half-maximal.

Structures are written as SMILES.

Test [1] has as its target Prostaglandin F2-alpha receptor (Homo sapiens, UniProt P43088). In words: Agonist activity at human prostaglandin FP receptor expressed in CHO cells assessed as increase in intracellular calcium level by Fura 2-AM dye based fluorescence assay. Format: functional, cell-based.
Test [2] has as its target T1, Prostaglandin E2 receptor EP3 subtype (Homo sapiens, UniProt P43115).
T1 sequence (P43115 whole entry): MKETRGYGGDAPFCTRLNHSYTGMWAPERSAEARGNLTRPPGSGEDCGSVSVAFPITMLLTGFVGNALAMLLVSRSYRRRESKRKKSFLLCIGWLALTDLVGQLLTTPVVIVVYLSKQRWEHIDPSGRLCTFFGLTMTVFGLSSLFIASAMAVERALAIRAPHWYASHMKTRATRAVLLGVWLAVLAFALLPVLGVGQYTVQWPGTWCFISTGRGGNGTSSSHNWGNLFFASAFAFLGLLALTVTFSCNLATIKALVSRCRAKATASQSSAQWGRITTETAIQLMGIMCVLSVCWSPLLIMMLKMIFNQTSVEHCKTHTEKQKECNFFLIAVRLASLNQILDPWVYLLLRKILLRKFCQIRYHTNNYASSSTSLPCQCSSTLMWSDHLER
As to the kind of experiment: Agonist activity at human EP3 receptor expressed in CHO cells assessed as increase in intracellular calcium level by Fura 2-AM dye based fluorescence assay. The class given is functional, cell-based.

The target of a further test is Prostacyclin receptor (Homo sapiens, UniProt P43119). As to the kind of experiment: Agonist activity at human IP receptor expressed in CHO cells assessed as increase in intracellular cAMP level by HTRF method. The class given is cell-based. On the technique in general: Changes in cAMP serve as a functional read-out for many G protein-coupled receptors.
The target in test [3] is Prostaglandin E2 receptor EP2 subtype (Homo sapiens, UniProt P43116). As to the kind of experiment: Agonist activity at EP2 receptor (unknown origin).
The target of test [4] is Prostaglandin E2 receptor EP4 subtype (Homo sapiens, UniProt P35408). As to the kind of experiment: Agonist activity at EP4 receptor (unknown origin).
Sequence of Prostaglandin E2 receptor EP4 subtype (P35408 whole entry): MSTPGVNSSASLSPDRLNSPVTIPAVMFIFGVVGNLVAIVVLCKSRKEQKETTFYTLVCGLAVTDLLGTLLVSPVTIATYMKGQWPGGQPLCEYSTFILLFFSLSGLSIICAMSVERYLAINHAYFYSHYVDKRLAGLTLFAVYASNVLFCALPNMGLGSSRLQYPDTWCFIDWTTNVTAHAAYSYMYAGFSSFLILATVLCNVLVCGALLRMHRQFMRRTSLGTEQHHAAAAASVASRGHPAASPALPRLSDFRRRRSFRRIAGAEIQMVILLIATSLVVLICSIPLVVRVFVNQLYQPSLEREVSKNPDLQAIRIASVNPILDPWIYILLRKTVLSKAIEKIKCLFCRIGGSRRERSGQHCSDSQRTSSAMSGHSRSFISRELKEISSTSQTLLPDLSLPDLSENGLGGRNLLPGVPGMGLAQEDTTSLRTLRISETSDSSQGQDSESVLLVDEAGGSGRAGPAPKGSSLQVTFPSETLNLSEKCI

Sequence of Prostacyclin receptor (P43119 whole entry): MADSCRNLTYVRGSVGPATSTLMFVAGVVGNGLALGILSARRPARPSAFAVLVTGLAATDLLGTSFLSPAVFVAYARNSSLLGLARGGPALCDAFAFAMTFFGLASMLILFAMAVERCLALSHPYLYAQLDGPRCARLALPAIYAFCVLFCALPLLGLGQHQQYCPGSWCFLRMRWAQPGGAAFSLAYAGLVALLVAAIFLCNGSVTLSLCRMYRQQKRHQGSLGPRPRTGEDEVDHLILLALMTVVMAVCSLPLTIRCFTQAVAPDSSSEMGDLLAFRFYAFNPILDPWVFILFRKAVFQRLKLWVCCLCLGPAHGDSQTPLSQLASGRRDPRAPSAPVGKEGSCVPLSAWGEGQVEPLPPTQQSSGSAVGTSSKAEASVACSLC
Sequence of Prostaglandin F2-alpha receptor (P43088 whole entry): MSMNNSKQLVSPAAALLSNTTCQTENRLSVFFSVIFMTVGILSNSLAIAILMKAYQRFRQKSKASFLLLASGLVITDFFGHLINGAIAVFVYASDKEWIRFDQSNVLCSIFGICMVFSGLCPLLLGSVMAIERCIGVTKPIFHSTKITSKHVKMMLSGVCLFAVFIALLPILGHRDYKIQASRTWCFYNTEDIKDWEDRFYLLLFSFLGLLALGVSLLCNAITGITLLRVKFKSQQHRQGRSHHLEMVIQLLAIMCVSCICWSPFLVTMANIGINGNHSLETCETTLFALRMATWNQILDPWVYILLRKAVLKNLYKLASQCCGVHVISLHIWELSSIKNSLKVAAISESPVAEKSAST
Sequence of Prostaglandin E2 receptor EP2 subtype (P43116 whole entry): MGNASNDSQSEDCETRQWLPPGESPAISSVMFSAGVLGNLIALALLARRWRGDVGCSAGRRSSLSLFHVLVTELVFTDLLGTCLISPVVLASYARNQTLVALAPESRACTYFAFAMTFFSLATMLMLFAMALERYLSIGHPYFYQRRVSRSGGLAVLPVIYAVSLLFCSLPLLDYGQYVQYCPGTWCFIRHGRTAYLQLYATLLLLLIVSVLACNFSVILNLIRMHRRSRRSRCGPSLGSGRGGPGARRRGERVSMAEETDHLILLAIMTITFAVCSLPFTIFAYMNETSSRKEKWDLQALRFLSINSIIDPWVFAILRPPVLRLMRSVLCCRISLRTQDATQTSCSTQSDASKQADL

Consider `O=C(O)CCCCCC1=CC[C@@H]2[C@@H](/C=C/[C@@H](O)COc3ccccc3)[C@H](O)C[C@@H]2OC1`, for which the EC50 in test [1] was 880 nM; in test [2], 6400 nM; at Prostacyclin receptor, greater than 10000 nM.

Take `O=C(O)CC[C@@H]1CC[C@@H]2[C@@H](/C=C/[C@@H](O)COc3ccccc3)[C@H](O)C[C@@H]2OC1`: the EC50 was 1000 nM in test [1], 870 nM in test [2] and greater than 10000 nM on Prostacyclin receptor.

In the case of `O=C(O)CC[C@H]1CC[C@@H]2[C@@H](/C=C/[C@@H](O)COc3ccccc3)[C@H](O)C[C@@H]2OC1`, the EC50 in test [1] is 110 nM; in test [2], 4800 nM; at Prostacyclin receptor, greater than 10000 nM.

Take `O=C(O)CCCCC1=CC[C@@H]2[C@@H](/C=C/[C@@H](O)COc3ccccc3)[C@H](O)C[C@@H]2OC1`: the EC50 is 73 nM in test [1], 13 nM in test [2] and greater than 10000 nM on Prostacyclin receptor.

As for `O=C(O)CCCC[C@H]1CC[C@@H]2[C@@H](/C=C/[C@@H](O)COc3ccccc3)[C@H](O)C[C@@H]2OC1`, the figures for the EC50 (in test [1]; in test [2]; at Prostacyclin receptor) were 43 nM, 540 nM and greater than 10000 nM, respectively.

As for `O=C(O)CCC[C@H]1CC[C@@H]2[C@@H](/C=C/[C@@H](O)COc3ccccc3)[C@H](O)C[C@@H]2OC1`, the EC50 is 28 nM in test [1]; 4 nM in test [2]; greater than 10000 nM on Prostacyclin receptor; greater than 10000 nM in test [3]; greater than 10000 nM in test [4].

For `O=C(O)CCC[C@@H]1CC[C@@H]2[C@@H](/C=C/[C@@H](O)COc3ccccc3)[C@H](O)C[C@@H]2OC1`, the EC50 in test [1] is 280 nM; in test [2], 2.3 nM; at Prostacyclin receptor it was greater than 10000 nM.

As for `O=C(O)CCC1=CC[C@@H]2[C@@H](/C=C/[C@@H](O)COc3ccccc3)[C@H](O)C[C@@H]2OC1`, the EC50 in test [1] was 530 nM; in test [2], 2700 nM; at Prostacyclin receptor, greater than 10000 nM.

In the case of `O=C(O)CCCC1=CC[C@@H]2[C@@H](/C=C/[C@@H](O)COc3ccccc3)[C@H](O)C[C@@H]2OC1`, the EC50 is 640 nM in test [1], 4700 nM in test [2] and greater than 10000 nM at Prostacyclin receptor.

In the case of `O=C(O)CCC/C=C\C[C@@H]1[C@@H](/C=C/[C@@H](O)COc2cccc(C(F)(F)F)c2)[C@H](O)C[C@@H]1O` [FLUPROSTENOL], the EC50 was 3.6 nM in test [1], 3400 nM in test [2] and greater than 10000 nM on Prostacyclin receptor.

Take `O=C(O)CC[C@@H]1CCC[C@@H]2[C@@H](/C=C/[C@@H](O)COc3ccccc3)[C@H](O)C[C@@H]2O1`: the EC50 was 3.8 nM in test [1], 27 nM in test [2] and 2000 nM at Prostacyclin receptor.

Take `O=C(O)CCC/C=C\C[C@H]1C(=O)C[C@@H](O)[C@@H]1/C=C/[C@@H](O)COc1ccccc1`: the EC50 in test [1] is 16 nM; in test [2], 0.89 nM.

Consider `O=C(O)CCC[C@@H]1CC[C@@H]2[C@@H](/C=C/[C@@H](O)COc3ccccc3)[C@H](O)C[C@@H]2O1`, for which the values for the EC50 (in test [1]; in test [2]; on Prostacyclin receptor) were 4.1 nM, 4.1 nM and 26 nM, respectively.

`O=C(O)CCC[C@H]1CC[C@@H]2[C@@H](/C=C/[C@@H](O)COc3ccccc3)[C@H](O)C[C@@H]2O1`: the EC50 worked out at 7.1 nM in test [1] and 3.6 nM in test [2].

As for `O=C(O)CC[C@H]1CCC[C@@H]2[C@@H](/C=C/[C@@H](O)COc3ccccc3)[C@H](O)C[C@@H]2O1`, the EC50 in test [1] is 22 nM; in test [2], 18 nM; at Prostacyclin receptor, greater than 10000 nM.

In the case of `O=C(O)CCCC[C@@H]1CC[C@@H]2[C@@H](/C=C/[C@@H](O)COc3ccccc3)[C@H](O)C[C@@H]2OC1`, the EC50 in test [1] was 110 nM; in test [2], 130 nM; at Prostacyclin receptor it was greater than 10000 nM.
